{"source": "patent US20140336233A1", "about": "(priority 2011, published 2014)", "key": {"Phytophthora infestans [1]": {"tested_on": "Phytophthora infestans", "assay_type": "in vivo, Phytophthora infestans on potato plants (variety Bintje)", "conditions": "for Efficacy (Abbott formula): Trial 1, potato, spray 24 h before inoculation, notation 5 days after contamination"}, "Phytophthora infestans [2]": {"tested_on": "Phytophthora infestans", "assay_type": "in vivo, Phytophthora infestans on tomato plants (variety Rentita)", "conditions": "Trial 3, tomato, preventive 24 h, notation 6 days after contamination"}, "Peronospora parasitica": {"tested_on": "Peronospora parasitica", "experiment": "In vivo test against Peronospora parasitica (crucifer downy mildew)", "set-up": "species or system Peronospora parasitica on cabbage plants (Eminence variety)", "conditions": "cabbage, spray 24 h before contamination, grading 5 days", "protocol": "Spirotetramat is prepared by dilution of the SC100 g/l formulation in water to obtain the desired active material concentration.\nCabbage plants (Eminence variety) in starter cups, sown on a 50/50 peat soil-pozzolana substrate and grown at 18-20° C., are treated at the cotyledon stage by spraying with the aqueous suspension described above at 500, 125 and 31 mg/l.\nPlants, used as controls, are treated with an aqueous solution not containing the active material.\nAfter 24 hours, the plants are contaminated by spraying them with an aqueous suspension of Peronospora parasitica spores (37 500 spores per ml). The spores are collected from infected plants.\nThe contaminated cabbage plants are incubated for 5 days at 20° C., under a humid atmosphere.\n(§1) Grading is carried out 5 days after the contamination, in comparison with the control plants."}, "Plasmopara viticola": {"tested_on": "Plasmopara viticola", "experiment": "In vivo test against Plasmopara viticola (vine downy mildew)", "conditions": "from 25 to 200 g a.i./ha, spray 24 h before inoculation, grading 5 days (FIG. 4)", "protocol": "The treatment is done by spray application in a spray cabinet at 500 L/ha with the aqueous dilutions of spirotetramat SC100 g/l formulation from 25 to 200 g a.i./ha.\nThe treatment is applied on six vine plants (Cabernet sauvignon variety, 9 weeks old) 24 hours and the plants are placed in a climatic chamber at 18° C. before inoculation.\nThe inoculation consists on spraying the sporangia suspension calibrated at 100 000 sporangia/ml, at the lower leaf face of each plant 24 h after the treatment and the plants are then placed in a climatic chamber at 18° C. day and night with saturate humidity until the symptoms assessment.\nas §1"}}, "note": "Like-named read-outs stand apart in the source and are kept apart here."}
{"smiles": "CCOC(=O)OC1=C(c2cc(C)ccc2C)C(=O)N[C@]12CC[C@@H](OC)CC2", "note": "[spirotetramat]", "values": [{"measurement": "Efficacy (Abbott formula)", "setting": "Phytophthora infestans [1]; 100 g a.i./ha", "value": 86, "unit": "%"}, {"measurement": "Efficacy (Abbott formula)", "setting": "Phytophthora infestans [1]; 1000 g a.i./ha", "value": 99, "unit": "%"}, {"measurement": "Efficacy compared with standards", "setting": "Phytophthora infestans [1]; Trial 2, potato, around 150 g a.i./ha, high disease pressure, preventive 24 h (FIG. 2)", "value": "equivalent to the best standard"}, {"measurement": "Efficacy, disease controlled", "setting": "Phytophthora infestans [2]; 100 g a.i./ha", "value": 95, "unit": "%"}, {"measurement": "Efficacy, disease controlled", "setting": "Phytophthora infestans [2]; 200 g a.i./ha", "value": 95, "unit": "%"}, {"measurement": "Activity on Peronospora parasitica", "setting": "Peronospora parasitica; 31 mg/l active ingredient", "value": 100, "unit": "%"}, {"measurement": "Activity on Peronospora parasitica", "setting": "Peronospora parasitica; 125 mg/l active ingredient", "value": 100, "unit": "%"}, {"measurement": "Activity on Peronospora parasitica", "setting": "Peronospora parasitica; 500 mg/l active ingredient", "value": 100, "unit": "%"}, {"measurement": "Activity against Plasmopara viticola vine downy mildew", "setting": "Plasmopara viticola", "value": 100, "unit": "%"}]}
